In ChEMBL document CHEMBL1154330, “Cucurbitane-type triterpenoids from the African plant Momordica balsamina” (J Nat Prod, 2009):

test system: MCF7; experiment: Cytotoxicity against human MCF7 cells after 24 hrs by MTT assay; assay type: functional, cell-based; conditions: MCF7, 24 h

Structure (SMILES) | IC50
C[C@H](C/C=C/C(C)(C)O)[C@H]1CC[C@@]2(C)[C@@H]3[C@@H](O)C=C4[C@@H](CC[C@H](O)C4(C)C)[C@]3(C)CC[C@]12C | 45.3 µM
C[C@H](C/C=C/C(C)(C)O)[C@H]1CC[C@@]2(C)[C@@H]3[C@@H](O)C=C4[C@@H](CC[C@H](O)C4(C)C)[C@]3(C)C[C@@H](O)[C@]12C [CUCURBALSAMINOL A] | > 133 µM
C=C(C)[C@@H](O)[C@H](O)C[C@@H](C)[C@H]1CC[C@@]2(C)[C@@H]3[C@@H](O)C=C4[C@@H](CC[C@H](O)[C@]4(C)CO)[C@]3(C)CC[C@]12C [BALSAMINAPENTAOL A] | 47 µM
CO[C@H]1C=C2[C@@H](CC[C@H](O)[C@]2(C)CO)[C@]2(C)CC[C@]3(C)[C@@H]([C@H](C)C[C@@H](O)C=C(C)C)CC[C@@]3(C)[C@H]12 [BALSAMINOL B] | 55.3 µM
CC(C)=C[C@H](O)C[C@@H](C)[C@H]1CC[C@@]2(C)[C@@H]3[C@@H](O)C=C4[C@@H](CC[C@H](O)[C@]4(C)CO)[C@]3(C)CC[C@]12C [BALSAMINOL A] | 40 µM
CC(C)=C[C@H](O)C[C@@H](C)[C@H]1CC[C@@]2(C)[C@@H]3C=C[C@@]45OC[C@]3(CC[C@]12C)[C@@H]4CC[C@H](O)C5(C)C [KARAVILAGENIN E] | 30.7 µM
COc1cccc2c1C(=O)c1c(O)c3c(c(O)c1C2=O)C[C@@](O)(C(=O)CO)C[C@@H]3O[C@H]1C[C@H](N)[C@H](O)[C@H](C)O1 [DOXORUBICIN] | 0.92 µM
